Measurements: patent US20070072814A1, “Method and means of modulating lipid metabolism” (priority 2003, published 2007)

What was measured:
Assay type in all cases: in vivo, human
[1] = system: Total cholesterol; assay: Clinical trial: serum total cholesterol of IHD patients under therapy; conditions: patient serum; for cholesterol lowering effect (in words): therapy administered for 8 weeks
Source text: (§1) A group of […] patients were selected for therapy to alter lipid metabolism relative to a control group of 20 ‘matched’patients who were not treated (Patient Control Group).
(§2) The therapy group comprised 23 male and 7 female patients with an average age of 55±1.1 years. The patient control group was comprised of 20 patients with IHD, of which 15 were male and 5 were female with an average age of 53±1.2 years. Each patient gave written consent for his/her participation in the trial.
(§3) All patients had angina of II-III class of Canadian Cardiological Society classification. […] IHD diagnosis for the other 15 patients with a recent history of unstable angina in the first group and 10 in the patient control group was confirmed by coronary angiography, which detected 70% or more of arterial stenosis.
(§4) Apart from the degree of generalization or severity of atherosclerosis, all groups were matched not only in age, gender and risk factors but also in medication, nitrates, β-blockers, angiotensin-converting enzyme inhibitors etc.
(§5) Each therapy was administered for 8 weeks. The blood of the patients of all four groups was tested every two weeks.

[2] = system: ApoB; assay: Clinical trial: serum Apo-B (immuno-turbometric assay); conditions: patient serum
Source text: as §1, §2, §3, §4, §5
(§6) The level of LDL was estimated in two independent parameters: LDL-cholesterol measured by combination of enzymatic and immunologic assays, and Apo-B measured by immuno-turbometric assay. These assays were performed using commercially available kits which include goat anti-human apo-B polyclonals (LDL-Direct™, Randox Labs Ltd UK, EZ LDL™ Cat No-358-A, Sigma UK).

[3] = system: Triglycerides; assay: Clinical trial: serum triglycerides of IHD patients under therapy; conditions: patient serum
Source text: as §1, §2
(§7) All patients had angina of II-III class of Canadian Cardiological Society classification.
as §4, §5

[4] = system: ApoA; assay: Clinical trial: serum ApoA of IHD patients under therapy; conditions: patient serum
Source text: as §1, §2, §7, §4, §5

[5] = system: LDL cholesterol; assay: Clinical trial: serum LDL-cholesterol (enzymatic and immunologic assays); conditions: patient serum
Source text: as §1, §2, §7, §4, §5, §6

SMILES: CC(=O)Oc1ccccc1C(=O)O [Group D, acetylsalicylic acid]
- Total cholesterol ([1]; 1 month after treatment): 221 mg/dL
- Total cholesterol (% of before-treatment value) ([1]; 1 month after treatment): 87%
- Total cholesterol ([1]; 2 months after treatment): 223 mg/dL
- Total cholesterol (% of before-treatment value) ([1]; 2 months after treatment): 88%
- Total cholesterol ([1]; 3 months after treatment): 234 mg/dL
- Total cholesterol (% of before-treatment value) ([1]; 3 months after treatment): 92%
- Total cholesterol ([1]; Treatment 2 weeks): 233 mg/dL
- Total cholesterol (% of before-treatment value) ([1]; Treatment 2 weeks): 92%
- Total cholesterol ([1]; Treatment 4 weeks): 210 mg/dL
- Total cholesterol (% of before-treatment value) ([1]; Treatment 4 weeks): 83%
- cholesterol lowering effect (in words) [1]: no cholesterol lowering effect
- ApoB ([2]; 1 month after treatment): 131 mg/dL
- ApoB (% of before-treatment value) ([2]; 1 month after treatment): 106%
- ApoB ([2]; 2 months after treatment): 142 mg/dL
- ApoB (% of before-treatment value) ([2]; 2 months after treatment): 114%
- ApoB ([2]; 3 months after treatment): 111 mg/dL
- ApoB (% of before-treatment value) ([2]; 3 months after treatment): 90%
- ApoB ([2]; Treatment 2 weeks): 137 mg/dL
- ApoB (% of before-treatment value) ([2]; Treatment 2 weeks): 110%
- ApoB ([2]; Treatment 4 weeks): 113 mg/dL
- ApoB (% of before-treatment value) ([2]; Treatment 4 weeks): 91%
- Triglycerides ([3]; 1 month after treatment): 146 mg/dL
- Triglycerides (% of before-treatment value) ([3]; 1 month after treatment): 126%
- Triglycerides ([3]; 2 months after treatment): 128 mg/dL
- Triglycerides ([3]; 3 months after treatment): 134 mg/dL
- Triglycerides ([3]; Treatment 2 weeks): 152 mg/dL
- Triglycerides (% of before-treatment value) ([3]; Treatment 2 weeks): 131%
- Triglycerides ([3]; Treatment 4 weeks): 111 mg/dL
- Triglycerides (% of before-treatment value) ([3]; Treatment 4 weeks): 96%
- ApoA ([4]; 1 month after treatment): 184 mg/dL
- ApoA ([4]; 2 months after treatment): 166 mg/dL
- ApoA (% of before-treatment value) ([4]; 2 months after treatment): 106%
- ApoA ([4]; 3 months after treatment): 179 mg/dL
- ApoA ([4]; Treatment 2 weeks): 157 mg/dL
- ApoA (% of before-treatment value) ([4]; Treatment 2 weeks): 99%
- ApoA ([4]; Treatment 4 weeks): 151 mg/dL
- ApoA (% of before-treatment value) ([4]; Treatment 4 weeks): 96%
- LDL cholesterol ([5]; 1 month after treatment): 44 mg/dL
- LDL cholesterol ([5]; 2 months after treatment): 38 mg/dL
- LDL cholesterol (% of before-treatment value) ([5]; 2 months after treatment): 103%
- LDL cholesterol ([5]; 3 months after treatment): 43 mg/dL
- LDL cholesterol ([5]; Treatment 2 weeks): 41 mg/dL
- LDL cholesterol ([5]; Treatment 4 weeks): 41 mg/dL

SMILES: CC[C@H]1OC(=O)[C@H](C)[C@@H](O[C@H]2C[C@@](C)(OC)[C@@H](O)[C@H](C)O2)[C@H](C)[C@@H](O[C@@H]2O[C@H](C)C[C@H](N(C)C)[C@H]2O)[C@](C)(O)C[C@@H](C)CN(C)[C@H](C)[C@@H](O)[C@]1(C)O [Group A, azithromycin]
- Total cholesterol ([1]; 1 month after treatment): 197 mg/dL
- Total cholesterol (% of before-treatment value) ([1]; 1 month after treatment): 96%
- Total cholesterol ([1]; 2 months after treatment): 196 mg/dL
- Total cholesterol (% of before-treatment value) ([1]; 2 months after treatment): 96%
- Total cholesterol ([1]; 3 months after treatment): 198 mg/dL
- Total cholesterol (% of before-treatment value) ([1]; 3 months after treatment): 97%
- Total cholesterol ([1]; Treatment 4 weeks): 186 mg/dL
- Total cholesterol (% of before-treatment value) ([1]; Treatment 4 weeks): 91%
- Total cholesterol ([1]; Treatment 6 weeks): 190 mg/dL
- Total cholesterol (% of before-treatment value) ([1]; Treatment 6 weeks): 93%
- Total cholesterol ([1]; Treatment 8 weeks): 191 mg/dL
- Total cholesterol (% of before-treatment value) ([1]; Treatment 8 weeks): 93%
- cholesterol lowering effect (in words) [1]: no cholesterol lowering effect
- ApoB ([2]; 1 month after treatment): 115 mg/dL
- ApoB (% of before-treatment value) ([2]; 1 month after treatment): 92%
- ApoB ([2]; 2 months after treatment): 133 mg/dL
- ApoB (% of before-treatment value) ([2]; 2 months after treatment): 106%
- ApoB ([2]; 3 months after treatment): 131 mg/dL
- ApoB (% of before-treatment value) ([2]; 3 months after treatment): 105%
- ApoB ([2]; Treatment 4 weeks): 109 mg/dL
- ApoB (% of before-treatment value) ([2]; Treatment 4 weeks): 87%
- ApoB ([2]; Treatment 6 weeks): 110 mg/dL
- ApoB (% of before-treatment value) ([2]; Treatment 6 weeks): 88%
- ApoB ([2]; Treatment 8 weeks): 113 mg/dL
- ApoB (% of before-treatment value) ([2]; Treatment 8 weeks): 90%
- Triglycerides ([3]; 1 month after treatment): 106 mg/dL
- Triglycerides (% of before-treatment value) ([3]; 1 month after treatment): 91%
- Triglycerides ([3]; 2 months after treatment): 118 mg/dL
- Triglycerides (% of before-treatment value) ([3]; 2 months after treatment): 101%
- Triglycerides ([3]; 3 months after treatment): 109 mg/dL
- Triglycerides (% of before-treatment value) ([3]; 3 months after treatment): 93%
- Triglycerides ([3]; Treatment 4 weeks): 112 mg/dL
- Triglycerides (% of before-treatment value) ([3]; Treatment 4 weeks): 96%
- Triglycerides ([3]; Treatment 6 weeks): 101 mg/dL
- Triglycerides (% of before-treatment value) ([3]; Treatment 6 weeks): 86%
- Triglycerides ([3]; Treatment 8 weeks): 99 mg/dL
- Triglycerides (% of before-treatment value) ([3]; Treatment 8 weeks): 85%
- ApoA ([4]; 1 month after treatment): 145 mg/dL
- ApoA (% of before-treatment value) ([4]; 1 month after treatment): 90%
- ApoA ([4]; 2 months after treatment): 162 mg/dL
- ApoA (% of before-treatment value) ([4]; 2 months after treatment): 101%
- ApoA ([4]; 3 months after treatment): 161 mg/dL
- ApoA (% of before-treatment value) ([4]; 3 months after treatment): 100%
- ApoA ([4]; Treatment 4 weeks): 142 mg/dL
- ApoA (% of before-treatment value) ([4]; Treatment 4 weeks): 88%
- ApoA ([4]; Treatment 6 weeks): 143 mg/dL
- ApoA (% of before-treatment value) ([4]; Treatment 6 weeks): 89%
- ApoA ([4]; Treatment 8 weeks): 141 mg/dL
- ApoA (% of before-treatment value) ([4]; Treatment 8 weeks): 88%
- LDL cholesterol ([5]; 1 month after treatment): 44 mg/dL
- LDL cholesterol (% of before-treatment value) ([5]; 1 month after treatment): 129%
- LDL cholesterol ([5]; 2 months after treatment): 41 mg/dL
- LDL cholesterol (% of before-treatment value) ([5]; 2 months after treatment): 121%
- LDL cholesterol ([5]; 3 months after treatment): 40 mg/dL
- LDL cholesterol (% of before-treatment value) ([5]; 3 months after treatment): 118%
- LDL cholesterol ([5]; Treatment 4 weeks): 37 mg/dL
- LDL cholesterol (% of before-treatment value) ([5]; Treatment 4 weeks): 109%
- LDL cholesterol ([5]; Treatment 6 weeks): 38 mg/dL
- LDL cholesterol (% of before-treatment value) ([5]; Treatment 6 weeks): 112%
- LDL cholesterol ([5]; Treatment 8 weeks): 39 mg/dL
- LDL cholesterol (% of before-treatment value) ([5]; Treatment 8 weeks): 115%
